Experiments:
MyD88 = target: T1, MyD88 (Homo sapiens, UniProt Q99836); assay: MyD88 inhibitor pre-treatment before stimulation, cytokine ELISA; format: cell-based; conditions: monocytes, st-2825 30 μM, 1 hr pre-incubation
T1 construct: endogenous in cells; host or cells: PBMC / monocytes from blood donors
Method: (§1) In some experiments, cells were pre-treated with the MyD88 inhibitor st-2825 (MedChemExpress) or the Caspase-1 inhibitor Ac-YVAD (InvivoGen) for 1 hr before stimulation with TLR ligands or the purified nuclear proteins. In some other experiments, cells were pre-incubated for 1 hr with anti-TLR2, TLR4 and TLR5 antibodies (InvivoGen) before stimulation. The optimal st-2825 and Ac-YVAD concentrations were determined based on both their effects on cell viability and LPS-induced cytokine production. Cell viability was determined using the CELLTITER 96® AQueous One Solution Cell Proliferation (MTS) Assay (Promega).
We then examined whether NCL still induces cytokines when MyD88 is inhibited [Kawai, T. and Akira, S., Semin Immunol 19: 24-32 (2007)]. A MyD88 inhibitor st-2825 was used in this experiment (FIG. 3A). Its optimal concentration was, after titration of its cytotoxicity and its inhibition of LPS-induced cytokine production, determined to be 30 μM (FIG. 5). […] The inhibition of TNFα production by Ac-YVAD could be explained by its blocking autocrine monocytes activation through the IL-1β these cells produce (FIG. 4).

[1] = tested on: dendritic cells (DC) and macrophages; conditions: Wu et al. 2021; cited from earlier work
PBMC [2] = assay: Peptide binding to and penetration of PBMC, flow cytometry; format: cell-based, human; conditions: for cell surface binding of peptide at 37° C.: PBMC gated for monocytes, B cells, T cells; for cell surface binding of peptide at 37° C. / intracellular peptide at 37° C.: 1 hr; for intracellular peptide at 4° C.: B cells and T cells, permeabilized; for intracellular peptide at 37° C.: permeabilized cells
Method: PBMC re-suspended in 100 μl macrophage serum free media (3×10^6/ml) were incubated with different peptides (200 μg/ml). PBMC (100 μl) were incubated with the peptides for 1 hr at 37° C. or 4° C. Cells were washed twice in 2% FBS/PBS and incubated with streptavidin-AF488 and Zombie (NIR) Fixable viability stain-APC-Cy7 for 30 min at 4° C. Cells were then fixed with 1% PFA for 30 min at room temperature and analysed using the Fortessa analyser (BD). In some experiments, PBMC were, after incubation with peptides, incubated with Zombie (NIR) Fixable viability stain (APC-Cy7) for 30 min at 4° C. Cells were then fixed and permeabilized with BD CYTOFIX/CYTOPERM™ Kit for 20 min at 4° C., and then incubated with streptavidin-AF488 for 30 min at 4° C. In some experiments, PBMC were, after incubation with the peptides, stained with fluorescent mouse antibodies specific for monocytes (CD14/BV711), T cells (CD3/PerCP-Cy5-5) and B cells (CD19/Pacific blue). Cells were then stained with Zombie (NIR) Fixable viability stain-APC-Cy7 and streptavin-AF488, with or without membrane permeabilization. In these experiments, monocytes, T cells and B cells were separately gated to detect surface peptide binding and intracellular peptide penetration.

TLR2 [3] = target: T2, TLR2 (Homo sapiens, UniProt O60603); assay: TLR2 binding assay (ELISA plate); set-up: purchased R&D Systems; conditions: TLR2 coated 2 μg/ml
Target sequence in this assay (O60603 21-590 limits assumed): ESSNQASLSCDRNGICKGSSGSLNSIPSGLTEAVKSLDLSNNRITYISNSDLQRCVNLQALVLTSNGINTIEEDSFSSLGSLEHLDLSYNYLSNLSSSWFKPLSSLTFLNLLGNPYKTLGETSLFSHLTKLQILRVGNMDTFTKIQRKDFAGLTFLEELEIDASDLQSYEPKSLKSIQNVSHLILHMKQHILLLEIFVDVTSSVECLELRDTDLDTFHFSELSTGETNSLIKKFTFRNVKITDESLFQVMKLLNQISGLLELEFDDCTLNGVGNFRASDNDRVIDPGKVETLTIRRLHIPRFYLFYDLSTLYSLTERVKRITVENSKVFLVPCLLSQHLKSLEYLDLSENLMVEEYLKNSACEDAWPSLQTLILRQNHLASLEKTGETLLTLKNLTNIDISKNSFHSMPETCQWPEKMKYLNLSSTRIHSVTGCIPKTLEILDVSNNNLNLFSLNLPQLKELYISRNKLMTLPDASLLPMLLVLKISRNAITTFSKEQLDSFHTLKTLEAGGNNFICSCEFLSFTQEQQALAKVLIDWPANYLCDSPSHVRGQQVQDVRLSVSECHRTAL

monocytes [4] = assay: Monocyte activation, TNFα and IL-1β ELISA; format: cell-based, human
Method: (§2) Buffy coat fractions were obtained from healthy blood donors at the Singapore Health Sciences Authority, with Institutional ethics approval, and PBMC were isolated using Ficoll-Paque (GE Healthcare). To isolate monocytes, PBMC were re-suspended to 1×10^7 cells/ml in the RPMI medium contained 5% (v/v) BCS and incubated for 1 hr in T75 flasks (20 ml/flask). Monocytes that adhered were harvested. To culture macrophages and DC [Cao, W., et al., Blood 107: 2777-2785, (2006), incorporated herein by reference], monocytes were resuspended to 1×10^6 cells/ml and cultured in 6-well plates (2 ml/well). Macrophages were cultured by adding M-CSF to 20 ng/ml and DC were cultured with 20 ng/ml GM-CSF and 40 ng/ml IL-4. M-CSF, GM-CSF and IL-4 were obtained from R&D Systems (Mineapolis, Minn.). Cells were cultured for 6 days with half of the media being replenished every two days.
[…] Where TLR ligands were used to stimulate these cells, they were added to the media: LPS (500 ng/ml for DC and macrophages and 10 ng/ml for PMBC and monocytes, InvivoGen), flagellin (1 μg/ml, InvivoGen), lipoteichic acid (LTA, 10 μg/ml). Cell activation was determined by measuring TNFα and IL-1β in the culture media using ELISA kits (Invitrogen).

monocytes [5] = assay: TLR-blocking antibody pre-incubation before stimulation, TNFα; format: cell-based, human; conditions: monocytes pre-incubated with blocking antibody
Method: as §1
Therefore, TLR2 is clearly a sensing receptor for NCL as well as HMGB1. We then further analyzed the contribution of TLR2, TLR4 and TLR5 to NCL and HMGB1 recognition in their natural cellular contexts. Monocytes were pre-incubated with antibodies that were known to block each of these TLRs and then stimulated with the respective microbial ligands i.e. lipoteichoic acid (LTA), LPS and flagellin (FIG. 3E). […] NCL is a 710-amino acid protein and it is interesting to identify the specific NCL region that activates TLR2.

TLR4/CD14/MD2 = target: T3, TLR4/CD14/MD2 (Homo sapiens, UniProt O00206); assay: TLR and NF-κB-luciferase assay in 293T cells, TLR4/CD14/MD2; format: cell-based; conditions: on top of high TLR4 autoactivation
T3 construct: expressed in transfected cells; host or cells: human embryonic kidney 293T cells
T3 sequence (O00206 24-839): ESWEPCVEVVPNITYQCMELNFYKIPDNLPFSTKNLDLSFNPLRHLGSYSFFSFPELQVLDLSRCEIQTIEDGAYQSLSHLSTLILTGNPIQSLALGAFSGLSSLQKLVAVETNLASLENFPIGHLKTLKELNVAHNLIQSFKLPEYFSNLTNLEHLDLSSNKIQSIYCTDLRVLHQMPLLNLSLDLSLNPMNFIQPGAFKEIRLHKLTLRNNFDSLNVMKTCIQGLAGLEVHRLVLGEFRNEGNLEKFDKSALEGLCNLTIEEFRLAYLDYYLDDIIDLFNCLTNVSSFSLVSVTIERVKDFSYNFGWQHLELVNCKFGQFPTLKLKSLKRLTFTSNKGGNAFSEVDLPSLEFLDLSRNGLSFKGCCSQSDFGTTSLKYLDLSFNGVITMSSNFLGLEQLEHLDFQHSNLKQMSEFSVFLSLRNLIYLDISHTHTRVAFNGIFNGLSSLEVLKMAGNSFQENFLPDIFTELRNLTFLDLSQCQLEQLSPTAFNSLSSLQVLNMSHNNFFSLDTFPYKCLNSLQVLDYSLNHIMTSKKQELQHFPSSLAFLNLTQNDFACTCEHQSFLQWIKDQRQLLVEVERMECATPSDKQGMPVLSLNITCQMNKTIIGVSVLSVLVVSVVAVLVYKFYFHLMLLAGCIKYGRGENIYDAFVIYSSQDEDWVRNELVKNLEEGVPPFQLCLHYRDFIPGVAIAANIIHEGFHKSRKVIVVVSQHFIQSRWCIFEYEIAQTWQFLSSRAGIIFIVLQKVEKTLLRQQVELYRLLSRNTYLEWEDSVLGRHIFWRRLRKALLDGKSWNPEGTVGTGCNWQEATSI
T3 sequence (Q9Y6Y9 19-160 partner): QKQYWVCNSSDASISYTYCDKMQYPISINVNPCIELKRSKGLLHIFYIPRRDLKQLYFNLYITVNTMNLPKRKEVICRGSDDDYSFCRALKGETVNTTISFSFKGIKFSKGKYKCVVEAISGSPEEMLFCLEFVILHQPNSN
Method: (§3) TLR-mediated NF-κB activation was determined using a Dual Luciferase Reporter Assay (Promega), in which two luciferase reporter plasmids were used. One plasmid expresses the firefly luciferase under the regulation of inducible NF-κB promoter and the other plasmid expresses the Renilla luciferase under a constitutively active CMV promoter [Zhang, H., et al., FEBS Lett 532: 171-176 (2002)]. Besides these luciferase vectors, cells were co-transfected with vectors coding for human TLRs or, in the case of TLR4, co-transfected with CD14 and MD2 [according to Zhang, H., et al., J. FEBS Lett 532: 171-176 (2002), incorporated herein by reference]. Transfection was performed using the TurboFect Transfection Reagent (Thermo Fisher Scientific). After 24 hr, cells were harvested and cultured for 24 hr in 96-well plates coated with the purified proteins or, as controls, cultured in blank plates but stimulated with TLR ligands. Cells were lysed to measure both firefly and Renilla luciferase activities and, in each sample, the firefly activity was normalized to the Renilla luciferase activity and expressed as relative NF-κB activation. […]

PBMC [6] = assay: PBMC activation, TNFα and IL-1β ELISA; format: cell-based, human; conditions: 2.5, 5.0, 10, 14, 18 and 24 hr
PBMC [7] = assay: PBMC activation, TNFα and IL-1β ELISA; format: cell-based, human; conditions: protein coated on plates, 24 hr, ELISA
Method: as §2
(§4) Purified proteins in PBS (30 μg/ml) were coated in triplicates in 96-well plates (50 μl/well) for 12 hr and PBMC (3×10^6 cells/ml), monocytes (1×10^6 cells/ml), macrophages (0.5×10^6 cells/ml) or DC (0.5×10^6 cells/ml) were re-suspended in macrophage serum-free medium containing penicillin and streptomycin and cultured for 24 hr in these plates at 100 μl/well. Where TLR ligands were used to stimulate these cells, they were added to the media: LPS (500 ng/ml for DC and macrophages and 10 ng/ml for PMBC and monocytes, InvivoGen), flagellin (1 μg/ml, InvivoGen), lipoteichic acid (LTA, 10 μg/ml). Cell activation was determined by measuring TNFα and IL-1β in the culture media using ELISA kits (Invitrogen).

[8] = tested on: dendritic cells (DC) and macrophages; assay: DC and macrophage activation, cytokine ELISA; format: cell-based, human; conditions: protein coated on plates
Method: as §2
as §4, with “Where TLR ligands were used to stimulate these cells, they were added to the media: LPS (500 ng/ml for DC and macrophages and 10 ng/ml for PMBC and monocytes, InvivoGen), flagellin (1 μg/ml, InvivoGen), lipoteichic acid (LTA, 10 μg/ml).” left out

TLR2 [9] = target: T2, TLR2; assay: TLR and NF-κB-luciferase assay in 293T cells, TLR2/TLR1/TLR6/TLR10; format: cell-based; set-up: expressed in transfected cells; host or cells: human embryonic kidney 293T cells
Method: TLR-mediated NF-κB activation was determined using a Dual Luciferase Reporter Assay (Promega), in which two luciferase reporter plasmids were used. […] Transfection was performed using the TurboFect Transfection Reagent (Thermo Fisher Scientific). After 24 hr, cells were harvested and cultured for 24 hr in 96-well plates coated with the purified proteins or, as controls, cultured in blank plates but stimulated with TLR ligands. Cells were lysed to measure both firefly and Renilla luciferase activities and, in each sample, the firefly activity was normalized to the Renilla luciferase activity and expressed as relative NF-κB activation.
TLRs and, where it required, co-receptors were co-transfected in a total of 4 combinations, i.e. TLR2/1/6/10, TLR4/CD14/MD2, TLR5, or TLR3/7/8/9. Two luciferase expression vectors were used: one expresses the firefly luciferase under 5 repeats of the NF-κB gene promoter and the other expresses the Renilla luciferase under the constitutively active CMV promoter (FIG. 3A).
Target sequence in this assay (O60603 21-784): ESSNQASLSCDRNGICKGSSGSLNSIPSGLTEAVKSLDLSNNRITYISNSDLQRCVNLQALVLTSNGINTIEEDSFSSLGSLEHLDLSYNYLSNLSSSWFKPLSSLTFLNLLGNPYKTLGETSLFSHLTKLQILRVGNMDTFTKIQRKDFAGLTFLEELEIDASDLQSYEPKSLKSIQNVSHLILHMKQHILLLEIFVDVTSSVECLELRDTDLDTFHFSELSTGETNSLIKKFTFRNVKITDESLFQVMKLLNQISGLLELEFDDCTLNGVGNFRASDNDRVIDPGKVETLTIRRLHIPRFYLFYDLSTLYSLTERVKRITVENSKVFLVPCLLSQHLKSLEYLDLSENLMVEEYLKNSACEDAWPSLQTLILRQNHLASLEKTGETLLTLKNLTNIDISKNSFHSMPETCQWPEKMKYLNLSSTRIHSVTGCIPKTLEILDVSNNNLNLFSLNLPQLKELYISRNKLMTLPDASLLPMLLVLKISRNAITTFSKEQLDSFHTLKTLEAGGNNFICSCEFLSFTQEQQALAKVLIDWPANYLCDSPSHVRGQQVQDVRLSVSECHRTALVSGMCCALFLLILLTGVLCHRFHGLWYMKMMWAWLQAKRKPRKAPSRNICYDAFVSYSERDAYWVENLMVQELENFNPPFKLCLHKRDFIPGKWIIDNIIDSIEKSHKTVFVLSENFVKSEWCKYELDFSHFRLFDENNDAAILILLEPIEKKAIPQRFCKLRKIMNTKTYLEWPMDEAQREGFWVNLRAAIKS

TLR5 = target: T4, TLR5 (Homo sapiens, UniProt O60602); assay: TLR and NF-κB-luciferase assay in 293T cells, TLR5; format: cell-based; conditions: protein-coated plates
T4 construct: expressed in transfected cells; host or cells: human embryonic kidney 293T cells
T4 sequence (O60602 21-858): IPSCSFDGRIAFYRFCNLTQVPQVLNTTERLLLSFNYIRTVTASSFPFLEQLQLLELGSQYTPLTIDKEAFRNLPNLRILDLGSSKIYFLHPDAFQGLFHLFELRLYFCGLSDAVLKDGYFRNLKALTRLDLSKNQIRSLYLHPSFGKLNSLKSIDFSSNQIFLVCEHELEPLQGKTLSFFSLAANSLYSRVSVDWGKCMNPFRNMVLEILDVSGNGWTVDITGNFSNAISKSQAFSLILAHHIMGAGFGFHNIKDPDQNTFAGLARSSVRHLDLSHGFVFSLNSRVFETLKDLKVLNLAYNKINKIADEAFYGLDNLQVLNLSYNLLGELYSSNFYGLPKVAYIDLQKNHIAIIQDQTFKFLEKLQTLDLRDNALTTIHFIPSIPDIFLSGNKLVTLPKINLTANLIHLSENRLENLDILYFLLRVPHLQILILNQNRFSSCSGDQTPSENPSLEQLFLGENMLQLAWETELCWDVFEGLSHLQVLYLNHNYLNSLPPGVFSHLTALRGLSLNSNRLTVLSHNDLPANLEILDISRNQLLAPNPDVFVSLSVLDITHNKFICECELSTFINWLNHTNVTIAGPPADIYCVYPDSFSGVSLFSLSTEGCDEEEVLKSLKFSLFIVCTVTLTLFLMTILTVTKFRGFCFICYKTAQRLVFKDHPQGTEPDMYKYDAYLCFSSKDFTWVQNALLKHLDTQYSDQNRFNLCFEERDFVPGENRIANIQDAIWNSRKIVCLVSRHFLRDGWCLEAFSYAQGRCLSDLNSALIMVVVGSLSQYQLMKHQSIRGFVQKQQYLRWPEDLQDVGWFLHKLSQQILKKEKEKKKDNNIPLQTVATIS
Method: as §3

T1 sequence (Q99836 whole entry): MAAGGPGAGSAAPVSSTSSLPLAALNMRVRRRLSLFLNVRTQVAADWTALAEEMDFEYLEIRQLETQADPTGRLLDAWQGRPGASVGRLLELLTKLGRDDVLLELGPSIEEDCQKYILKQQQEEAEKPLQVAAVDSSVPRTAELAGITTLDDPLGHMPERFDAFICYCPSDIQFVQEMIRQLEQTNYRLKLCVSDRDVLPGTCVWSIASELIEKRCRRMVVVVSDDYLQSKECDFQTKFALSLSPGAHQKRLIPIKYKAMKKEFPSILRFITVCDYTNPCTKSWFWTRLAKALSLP

Q: Which results are given for `NC(=O)[C@H]1CCS[C@@H]2C[C@]3(CCCN3C(=O)Cc3ccc(NC(=O)COc4ccc(Cl)cc4Cl)cc3)C(=O)N12` [st-2825]?
A: inhibition of HMGB1 and LPS induction of TNFα and IL-1β (MyD88): also inhibited; inhibition of NCL induction of TNFα and IL-1β (MyD88): partially but significantly inhibited

Q: For “GGFGGRGGGRGGRGGFGGRGRGGFGGRGGFRGGRGG (NCL-P2)”, which “DC activation judged by TNFα induction” value [1] is on record?
A: The value was “activate DC”.

Q: What about the “intracellular pool / cell penetration (CPP activity) in PBMC” value (PBMC [2]; 1 hr at 4° C., fixed/permeabilized, streptavidin-AF488) of the same molecule?
A: Its value is “accumulate intracellular pools”.

Q: And the “cell surface binding of peptide at 37° C.” value (PBMC [2])?
A: The value was “the majority of monocytes and smaller fractions of B and T cells”.

Q: And the “cell surface binding of peptide at 37° C.” value (PBMC [2]; listed as P2)?
A: Its value is “surface binding was only prominent on PBMC and monocytes”.

Q: And the “intracellular peptide at 4° C.” value (PBMC [2]; monocytes)?
A: Its value is “similarly high intracellular pools of the peptide”.

Q: What about the “intracellular peptide at 4° C.” value (PBMC [2]; monocytes, listed as P2) of the same molecule?
A: The value was “similarly high levels of intracellular P2 peptide irrespective of the temperature of incubation”.

Q: What about the “surface-bound peptide at 4° C.” value (PBMC [2]; monocytes, compared with 37° C.) of the same molecule?
A: The value was “increased significantly”.

Q: And the “intracellular peptide at 37° C.” value (PBMC [2])?
A: The value was “much higher level of the peptide was detected in all PBMC”.

Q: And the “intracellular peptide at 37° C.” value (PBMC [2]; listed as P2)?
A: The value was “similarly high levels of intracellular P2 peptide irrespective of the temperature of incubation”.

Q: What about the “concentration at which saturated TLR2 binding was reached” value (TLR2 [3]) of the same molecule?
A: Its value is 3.2 µg/mL.

Q: And the “peptide binding to coated TLR2” value (TLR2 [3]; biotin peptides at increasing concentrations)?
A: Its value is “dose-dependent and saturable binding to TLR2”.

Q: What about the “alarmin activity compared with NCL-P1” value (monocytes [4]; monocytes) of the same molecule?
A: Its value is “stronger alarmin activity than NCL-P1”.

Q: What about the “cytokine induction, soluble versus coated (immobilized) form” value (monocytes [4]; monocytes, 24 hr) of the same molecule?
A: The value was “induced more cytokines than immobilized peptides”.

Q: And the “cytokines induced by plate-coated peptide compared with NCL-P1” value (monocytes [4]; monocytes, peptides coated on plates)?
A: Its value is “induced more cytokines than NCL-P1”.

Q: And the “TNFα induced relative to NCL-P1” value (monocytes [4]; monocytes, soluble peptide 40 μg/ml)?
A: The value was “approximately 10 fold”.

Q: And the “TNFα induction from monocytes (7 NCL peptides)” value (monocytes [4]; peptides 50 or 200 μg/ml, 24 hr)?
A: Its value is “induced TNFα”.

Q: And the “TNFα induction from monocytes at lower concentrations” value (monocytes [4]; soluble peptide 10 and 20 μg/ml)?
A: Its value is “induced little TNFα”.

Q: And the “TNFα induction from monocytes at higher concentrations” value (monocytes [4]; soluble peptide 80 and 160 μg/ml)?
A: The value was “strongly induced TNFα production”.

Q: Which results are given for “HMGB1: HMGB1 purified from T×NE as an alarmin control”?
A: effect of TLR2 antibody on TNFα production induced by the protein (monocytes [5]): significantly inhibited; effect of TLR4 antibody on TNFα production induced by the protein (monocytes [5]): significantly inhibited; effect of TLR5 antibody on TNFα production induced by the protein (monocytes [5]): significantly inhibited; NF-κB activation via TLR4/CD14/MD2 (TLR4/CD14/MD2): marginal but significant additional TLR4 activation; kinetics of IL-1β induction from PBMC (PBMC [6]): rapidly surged to plateau; kinetics of TNFα induction from PBMC (PBMC [6]): linear early increase but a noticeable late surge; TNFα and IL-1β production from PBMC (PBMC [7]): HMGB1 did; cytokine production from dendritic cells (DC) and macrophages [8]: also induced cytokine production; TLR2 response when expressed without TLR1/TLR6/TLR10 or co-expressed with TLR5 (TLR2 [9]): not significantly affected; NF-κB activation via TLR2/TLR1/TLR6/TLR10 combination (TLR2 [9]; protein-coated plates, 24 hr): prominent activation; NF-κB activation via TLR5 (TLR5): consistently activated TLR5; TNFα and IL-1β production from monocytes (monocytes [4]; protein coated on plates, 24 hr, ELISA): HMGB1 did

Source: US20230257429A1, “PEPTIDE ADJUVANT FOR ITS THERAPEUTIC APPLICATIONS IN VIRAL AND TUMOUR VACCINE DEVELOPMENT AND CANCER IMMUNOTHERAPY AND AUTOIMMUNE DISEASE DIAGNOSIS AND TREATMENTS” (National University of Singapore, priority 2020, published 2023)
